Here are results for 18 molecules from patent publication US9067888B2, “Inhibitors of protein kinases” (Ingenium Pharmaceuticals GmbH, priority 2010, dated 2015).

In assay [1] the test system is TNF-alpha inducible reporter gene. The assay is described as follows: Inhibition of TNF-alpha-induced reporter gene expression (luciferase) in HeLa-derived cell line. To be noted: remaining luciferase activity in presence of 3 μM of compound as ratio of DMSO-treated cells, TNF-alpha 50 ng/ml; for activity at 3 µM: Homo sapiens, 6 h, read-out: Efficacy (ratio to DMSO) TNF-alpha induced response; for Efficacy (ratio to DMSO) TNF-alpha induced response: 6 hours. The format is cell-based, human. The source says:
TNF-alpha responsive cell lines like the human HeLa cell line can be used to study cellular responses to TNF-alpha, e.g. transcriptional regulation of a transfected TNF-alpha responsive reporter gene, and effects of kinase inhibitors on this response.
In order to analyse compound effects on TNF-alpha mediated transcriptional response, a HeLa-derived cell line stably transfected with a TNF-alpha inducible reporter gene was used (Panomics Catalog No. RC0013). The cell line was obtained by co-transfection of a luciferase reporter gene (Panomics P/N LR0051) and pHyg into human cervical epithelial HeLa cells, followed by hygromycin selection. TNFα-induced luciferase activity was used to select clones from the hygromycin-resistant cells. The cell line was maintained and stimulated according to the manufacturer's instructions. Briefly, cells were seeded at 5×10^5/well in 1 ml of growth medium in a 12-well plate and incubated in a humidified incubator at 37° C. and 5% CO2 for 24 hours. Medium was replaced with 1 ml of serum free medium and compounds were added up to concentrations of […]. After 1 hour of incubation, TNF-alpha was added to achieve a final concentration of 50 ng/ml. The culture dish was further incubated in a humidified incubator at 37° C. and 5% CO2 for 6 hours, medium was removed and 100 μL of lysis buffer were added to each well and the assay for luciferase activity was performed according to assay manufacturer's (Promega P/N E1500) recommendations. For more information about this cell line, go to worldwide website www(dot)panomics.com.
Compound effects on TNF-alpha-induced reporter gene expression is shown in column 6 in Table 1 given below. Indicated is the remaining luciferase activity after incubation in presence of 3 μM of compound as a ratio of the activity of DMSO-treated cells without compound. Specifically, it was intended to distinguish cell permeable compounds from other compounds having significant inhibitory potency with regard to other CDKs, but fail to penetrate cells or are unstable under the conditions of the experiment.
On the technique in general: A reporter such as luciferase makes a cellular process visible.

Assay [2] has as its target CDK9 (Homo sapiens (Human), UniProt P50750). The assay is described as follows: In vitro kinase inhibition, KinaseProfiler service of Millipore, residual activity. Conditions: for remaining activity at 0.01 µM: read-out: CDK9 10 nM (RA in %); for remaining activity at 0.1 µM / CDK9 100 nM (RA in %): residual activity at 100 nM compound; for remaining activity at 0.1 µM: read-out: CDK9 100 nM (RA in %). In kind it is biochemical. The source says: In vitro kinase assay analysis may be performed using standard techniques described in the art. These techniques are also used by commercial services providers in order to offer in vitro kinase activity assay services, e.g. the assays offered by Millipore Inc. (worldwide website www(dot)millipore.com), ProQinase GmbH (worldwide website www(dot)proqinase.de) and others.
In vitro kinase inhibition results shown in columns 7 to 9 in Table 1 were obtained by employing the KinaseProfiler™ service of Millipore and used to select compounds displaying specificity for CDK9. Specifically, it was intended to distinguish the CDK9-specific compounds from other compounds having significant inhibitory potency also with regard to other CDKs.

Setting [3] is: residual activity at 10 nM compound.

Sequence of CDK9 (P50750 whole entry): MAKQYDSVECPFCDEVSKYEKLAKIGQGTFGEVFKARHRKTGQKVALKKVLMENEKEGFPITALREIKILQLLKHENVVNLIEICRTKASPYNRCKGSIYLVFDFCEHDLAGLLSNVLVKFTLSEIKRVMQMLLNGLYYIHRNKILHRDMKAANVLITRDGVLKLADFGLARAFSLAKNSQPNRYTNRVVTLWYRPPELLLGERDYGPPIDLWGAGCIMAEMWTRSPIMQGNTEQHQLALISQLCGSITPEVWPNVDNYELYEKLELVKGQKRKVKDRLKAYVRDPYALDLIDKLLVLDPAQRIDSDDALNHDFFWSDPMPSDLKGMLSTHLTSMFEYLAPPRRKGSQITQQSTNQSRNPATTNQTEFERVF
Sequence of CDK9 (O60563 whole entry partner): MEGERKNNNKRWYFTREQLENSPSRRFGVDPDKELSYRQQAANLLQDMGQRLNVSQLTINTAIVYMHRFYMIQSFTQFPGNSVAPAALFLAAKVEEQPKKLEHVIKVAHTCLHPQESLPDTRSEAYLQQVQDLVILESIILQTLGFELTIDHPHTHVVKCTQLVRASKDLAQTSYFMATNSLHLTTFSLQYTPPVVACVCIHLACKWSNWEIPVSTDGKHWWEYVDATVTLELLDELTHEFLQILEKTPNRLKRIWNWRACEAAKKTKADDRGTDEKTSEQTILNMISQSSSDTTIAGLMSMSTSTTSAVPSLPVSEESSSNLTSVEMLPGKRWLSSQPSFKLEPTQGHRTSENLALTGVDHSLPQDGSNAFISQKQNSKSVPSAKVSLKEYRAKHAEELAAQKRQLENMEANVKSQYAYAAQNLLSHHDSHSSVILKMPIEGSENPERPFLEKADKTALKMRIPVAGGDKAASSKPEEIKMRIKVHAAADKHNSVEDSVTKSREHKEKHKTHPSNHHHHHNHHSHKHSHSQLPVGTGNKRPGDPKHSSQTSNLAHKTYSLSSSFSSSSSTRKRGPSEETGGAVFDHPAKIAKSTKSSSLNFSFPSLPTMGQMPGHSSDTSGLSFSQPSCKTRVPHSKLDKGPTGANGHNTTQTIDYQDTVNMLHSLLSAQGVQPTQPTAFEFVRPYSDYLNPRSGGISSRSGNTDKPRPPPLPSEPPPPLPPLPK

On to `COc1cc(F)ccc1-c1ccnc(NC(=O)[C@H]2CC[C@@H](Nc3ccccc3)CC2)c1` [Example 36, cis-N-(4-(4-Fluoro-2-methoxyphenyl)pyridin-2-yl)-4-(phenylamino)-cyclohexanecarboxamide], for which the activity at 3 µM in assay [1] stood at 26%. The remaining activity at 0.01 µM in assay [2] (setting [3]) was found to be 59%. The remaining activity at 0.1 µM in assay [2] came to 12%.
The corresponding values for `COc1cc(F)ccc1-c1ccnc(NC(=O)Cc2ccc(N3CCN(C)CC3)cc2)c1` [Example 20, N-(4-(4-Fluoro-2-methoxyphenyl)pyridin-2-yl)-2-(4-(4-methylpiperazin-1-yl)phenyl)acetamide] are 8%, 39% and 5%.
Taken in the same sequence, the figures for `COc1cc(F)ccc1-c1ccnc(NC(=O)[C@@H]2CC[C@H](NC(C)=O)C2)c1` [Example 34, (1R,3S)-3-Acetamido-N-(4-(4-fluoro-2-methoxyphenyl)pyridin-2-yl)cyclopentanecarboxamide] were 7%, 50% and 8%.
The corresponding values for `COc1cc(F)ccc1-c1ccnc(NC(=O)Cc2cccs2)c1` [Example 9, N-(4-(4-Fluoro-2-methoxyphenyl)pyridin-2-yl)-2-(thiophen-2-yl)acetamide] are 4%, 76% and 16%.
As for `COc1cc(F)ccc1-c1ccnc(NC(=O)C(C)c2cccnc2)c1` (stereo not drawn) [Example 13, N-(4-(4-Fluoro-2-methoxyphenyl)pyridin-2-yl)-2-(pyridin-3-yl)propanamide], in assay [1], the activity at 3 µM is 4%. Further, the remaining activity at 0.01 µM in assay [2] (setting [3]) came to 66%. In assay [2], the remaining activity at 0.1 µM worked out at 2%.
Taken in the same sequence, the figures for `COc1cc(F)ccc1-c1ccnc(NC(=O)Cc2ccnc(N3CCN(C)CC3)c2)c1` [Example 31, N-(4-(4-Fluoro-2-methoxyphenyl)pyridin-2-yl)-2-(2-(4-methylpiperazin-1-yl)pyridin-4-yl)acetamide] were 4%, 58% and 8%.
The corresponding values for `COc1ccc([C@H](C)C(=O)Nc2cc(-c3ccc(F)cc3OC)ccn2)cc1` [Example 11, (2S)—N-(4-(4-Fluoro-2-methoxyphenyl)pyridin-2-yl)-2-(4-methoxyphenyl)-propanamide] are 7%, 36% and 6%.
Regarding `COc1cc(F)ccc1-c1ccnc(NC(=O)C2CCCCC2)c1` [Example 1, N-(4-(4-Fluoro-2-methoxyphenyl)pyridin-2-yl)cyclohexanecarboxamide], the activity at 3 µM in assay [1] turned out to be 23%. Also, in assay [2] (setting [3]), the remaining activity at 0.01 µM turned out to be 88%. Moreover, the remaining activity at 0.1 µM in assay [2] is 23%.
As for `COc1cc(F)ccc1-c1ccnc(NC(=O)[C@H]2CC[C@@H](Nc3ccccn3)CC2)c1` [Example 30, N-(4-(4-Fluoro-2-methoxyphenyl)pyridin-2-yl)-4-(pyridin-2-ylamino)-cis-cyclohexanecarboxamide], the activity at 3 µM in assay [1] amounted to 3%. The remaining activity at 0.01 µM in assay [2] (setting [3]) was 29%. The remaining activity at 0.1 µM in assay [2] stood at 4%.
The corresponding values for `COc1cc(F)ccc1-c1ccnc(NC(=O)[C@H]2CC[C@@H](NC(C)=O)C2)c1` [Example 41, (1S,3R)-3-Acetamido-N-(4-(4-fluoro-2-methoxyphenyl)pyridin-2-yl)cyclopentanecarboxamide] are 3%, 38% and 8%.
`COc1ccc(CC(=O)Nc2cc(-c3ccc(F)cc3OC)ccn2)cc1` [Example 6, N-(4-(4-Fluoro-2-methoxyphenyl)pyridin-2-yl)-2-(4-methoxyphenyl)-acetamide]: the activity at 3 µM in assay [1] stood at 7%. For the same molecule, the remaining activity at 0.01 µM in assay [2] (setting [3]) was determined as 68%. Also, the remaining activity at 0.1 µM in assay [2] worked out at 16%.
Taken in the same sequence, the figures for `COc1cc(F)ccc1-c1ccnc(NC(=O)CC2CCCCC2)c1` [Example 2, 2-Cyclohexyl-N-(4-(4-fluoro-2-methoxyphenyl)pyridin-2-yl)acetamide] were 49%, 78% and 33%.
As to `COc1cc(F)ccc1-c1ccnc(NC(=O)C2CNC(=O)C2)c1` (stereo not drawn) [Example 5, N-(4-(4-Fluoro-2-methoxyphenyl)pyridin-2-yl)-5-oxopyrrolidine-3-carboxamide], the activity at 3 µM in assay [1] turned out to be 4%. Further, the remaining activity at 0.01 µM in assay [2] (setting [3]) is 46%. The remaining activity at 0.1 µM in assay [2] was 5%.
For `COc1cc(F)ccc1-c1ccnc(NC(=O)C(C)c2ccncc2)c1` (stereo not drawn) [Example 15, N-(4-(4-Fluoro-2-methoxyphenyl)pyridin-2-yl)-2-(pyridin-4-yl)propanamide], the “Efficacy (ratio to DMSO) TNF-alpha induced response” value in assay [1] is 0.83. In addition, in assay [2] (setting [3]), the remaining activity at 0.01 µM was 84%. In assay [2], the “CDK9 100 nM (RA in %)” value was 64%.
`COc1cc(F)ccc1-c1ccnc(NC(=O)[C@@H](C)c2cccnc2)c1` (stereo in doubt) [Example 12, N-(4-(4-Fluoro-2-methoxyphenyl)pyridin-2-yl)-2-(pyridin-3-yl)propanamide]: in assay [1], the activity at 3 µM worked out at 83%. Further, the remaining activity at 0.01 µM in assay [2] (setting [3]) was 94%. In addition, in assay [2], the remaining activity at 0.1 µM came to 96%.
The corresponding values for `COc1cc(F)ccc1-c1ccnc(NC(=O)[C@H]2CC[C@@H](Nc3ccncc3)CC2)c1` [Example 32, cis-N-(4-(4-Fluoro-2-methoxyphenyl)pyridin-2-yl)-4-(pyridin-4-ylamino)-cyclohexanecarboxamide] are 4%, 34% and 4%.
With `COc1cc(F)ccc1-c1ccnc(NC(=O)C2CCNCC2)c1` [Example 3, N-(4-(4-Fluoro-2-methoxyphenyl)pyridin-2-yl)piperidine-4-carboxamide], in assay [1], the activity at 3 µM was found to be 5%. In assay [2] (setting [3]), the remaining activity at 0.01 µM came out at 86%. Moreover, in assay [2], the remaining activity at 0.1 µM is 9%.
With `COc1ccc(F)cc1-c1ccnc(NC(=O)C(C)c2cccs2)c1` (stereo not drawn) [Example 17, N-(4-(5-Fluoro-2-methoxyphenyl)pyridin-2-yl)-2-(thiophen-2-yl)propanamide], the “Efficacy (ratio to DMSO) TNF-alpha induced response” value in assay [1] was 0.88. Besides, in assay [2] (setting [3]), the “CDK9 10 nM (RA in %)” value worked out at 114%. For the same molecule, the “CDK9 100 nM (RA in %)” value in assay [2] is 97%.
